PubChem BioAssay AID1919007 (Molecular Pharmacology Branch, DTP, NCI, 2023)

Tested on: A498 complex spheroids with HUVEC/MSC, growth
Assay: Anticancer human tumor A498 cell line growth inhibition [AhR];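 also: seven day exposure starting three days after spheroid seeding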;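 as to viability, T/C: luminescence signal used as a surrogate for viable cells; luminescence viability scaled so 100% equals DMSO vehicle wells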
Details: for viability, T/C: stronger effect = lower value
Description: Multicellular complex tumor spheroid response to aryl hydrocarbon receptor antagonists in combination with a variety of drugs and investigational agents in selected tumor cell lines
The current study was undertaken to assess response to aryl hydrocarbon receptor antagonists in combination with standard-of-care drugs and investigational agents in solid tumor complex spheroid models. Complex spheroids include a stromal component modeled by human endothelial cells (HUVEC) and fibroblasts modeled by human mesenchymal stem cells (MSCs). The concentration ranges selected for each drug and investigational agent were based upon clinically achievable concentrations if the clinical Cmax of the agent was known.
Compounds. The drugs and investigational agents: BAY 2416964 (NSC825713), GNF351 (NSC835774), CH-223191 (NSC835775), CPI-455 (NSC825282), aza-TdCyd (NSC777586), decitabine (NSC127716), belinostat (NSC758774), entinostat (NSC756642), pevonedistat (NSC761192), tazemetostat (NSC777109), talazoparib (NSC765396), olaparib (NSC753686), selinexor (NSC780203), nedisertib (M3814, NSC802822), bortezomib (NSC756655), venetoclax (NSC766270), doxorubicin (NSC123127), elimusertib (BAY189344, NSC800525), ceralasertib (AZD6738, NSC777638), TAK-243 (NSC785004), alisertib (NSC759677), etoposide (NSC141540), topotecan (NSC609699), eribulin (NSC707389), gemcitabine (NSC613327), carboplatin (NSC241240), cisplatin (NSC119875), and SN-38 (NSC673596) were obtained from the National Cancer Institute (NCI) Developmental Therapeutics Program Chemical Repository (32). The FDA-approved anticancer drug set is available from the Developmental Therapeutics Program at https://dtp.cancer.gov/organization/dscb/obtaining/available plates.htm. […] The stock solutions were prepared in dimethyl sulfoxide (DMSO, Sigma-Aldrich, St. Louis, MO, cat. D2650), except for the platinum compounds which were prepared in saline (Quality Biological, Gaithersburg, MD, cat. 114-055-101), at 800-fold the tested concentration and stored at -70 degrees C prior to their use. All drugs and investigational agents were tested over a range starting from a high concentration at or near the clinical Cmax and decreasing in half-log increments. If the clinical Cmax for an agent had not been determined, the highest concentration tested was 10 microM (Table 1).
Cell Culture. All cells were maintained in an incubator at 37 degrees C and 5% CO2 with 95% humidity. The PDC lines were cultured according to standard operating procedures established by the NCI PDMR (https://pdmr.cancer.gov). Briefly, all PDCs were thawed and cultured in Matrigel-coated flasks prepared with a working solution of 1X Ham's F-12 nutrient mix, without supplementation (Invitrogen, Waltham, MA, cat. 11765054), 100 U/mL penicillin-streptomycin (Invitrogen, cat. 15140122), and 2.5% Matrigel (Corning Inc., Corning, NY, cat. 354248) for the first three passages. All PDCs were cultured in complete DMEM/F-12 media containing advanced DMEM/F-12 (Invitrogen, cat. 12634028), 4.9% defined fetal bovine serum, heat inactivated (HyClone Laboratories Inc., Logan, UT, cat. SH30070.03HI), 389 ng/mL hydrocortisone (Sigma-Aldrich, cat. H4001), 9.7 ng/mL human EGF recombinant protein (Invitrogen, cat. PHG0313), 23.4 microg/mL adenine (Sigma-Aldrich, cat. A2786), 97.3 U/mL penicillin-streptomycin (Invitrogen, cat. 15140122), 1.9 mM L-glutamine (Invitrogen, cat. 25030081), and 9.7 microM Y-27632 dihydrochloride (Tocris Bioscience, Bristol, United Kingdom, cat. 1254). The PDCs were cultured in complete DMEM/F12 media without 10 microM Y-27632 dihydrochloride for at least two passages prior to the screen. The established cell lines NCI-H1341 and […] were cultured in DMEM/F-12, HEPES (Invitrogen, cat. 11330032), 5% defined fetal bovine serum (HyClone Laboratories Inc., cat. SH30070.03), ITS premix universal culture supplement [insulin (5 microg/mL), transferrin (5 microg/mL), and selenious acid (5 ng/mL)] […]

[1] = curve of first compound, second compound 0.1 µM
[2] = curve of first compound, second compound 0.316 µM
[3] = curve of first compound, second compound 1 µM
[4] = curve of first compound, second compound 3.16 µM
[5] = curve of first compound, second compound 10 µM
[6] = second compound 0.1 µM, first compound 0.0316 µM
[7] = second compound 0.1 µM, first compound 0.1 µM
[8] = second compound 0.1 µM, first compound 0.316 µM
[9] = second compound 0.1 µM, first compound 1 µM
[10] = second compound 0.1 µM, first compound 3.16 µM
[11] = second compound 0.1 µM, first compound 10 µM
[12] = second compound 0.316 µM, first compound 0.0316 µM
[13] = second compound 0.316 µM, first compound 0.1 µM
[14] = second compound 0.316 µM, first compound 0.316 µM
[15] = second compound 0.316 µM, first compound 1 µM
[16] = second compound 0.316 µM, first compound 3.16 µM
[17] = second compound 0.316 µM, first compound 10 µM
[18] = second compound 1 µM, first compound 0.0316 µM
[19] = second compound 1 µM, first compound 0.1 µM
[20] = second compound 1 µM, first compound 0.316 µM
[21] = second compound 1 µM, first compound 1 µM
[22] = second compound 1 µM, first compound 3.16 µM
[23] = second compound 1 µM, first compound 10 µM
[24] = second compound 3.16 µM, first compound 0.0316 µM
[25] = second compound 3.16 µM, first compound 0.1 µM
[26] = second compound 3.16 µM, first compound 0.316 µM
[27] = second compound 3.16 µM, first compound 1 µM
[28] = second compound 3.16 µM, first compound 3.16 µM
[29] = second compound 3.16 µM, first compound 10 µM
[30] = second compound 10 µM, first compound 0.0316 µM
[31] = second compound 10 µM, first compound 0.1 µM
[32] = second compound 10 µM, first compound 0.316 µM
[33] = second compound 10 µM, first compound 1 µM
[34] = second compound 10 µM, first compound 3.16 µM
[35] = second compound 10 µM, first compound 10 µM

In the case of `COc1cc(C2c3cc4c(cc3C(OC3OC5COC(C)OC5C(O)C3O)C3COC(=O)C23)OCO4)cc(OC)c1O` (stereo not given) + CC(CO)NC(=O)c1cc(-c2ccc(Cl)cc2)nn(-c2cnn(C)c2)c1=O, the IC50 [1] is reported as 2970 nM, the IC50 [2] is reported as 2080 nM and the IC50 [3] is reported as 1560 nM. For the same molecule, the IC50 [4] was 1080 nM, the IC50 [5] was 400 nM and the viability, T/C [6] was 74.1%. The viability, T/C [7] was 81.2%, the viability, T/C [8] was 69.4% and the viability, T/C [9] was 57.7%. The viability, T/C [10] was 52.5%, the viability, T/C [11] was 42.2% and the viability, T/C [12] was 74.2%. The viability, T/C [13] was 73.1%, the viability, T/C [14] was 68% and the viability, T/C [15] was 52.9%. The viability, T/C [16] was 49.8%, the viability, T/C [17] was 40.1% and the viability, T/C [18] was 66.7%. For the same molecule, the viability, T/C [19] was 77%, the viability, T/C [20] was 71.3% and the viability, T/C [21] was 53.3%. It also gave a viability, T/C [22] of 47.3%, a viability, T/C [23] of 40.3% and a viability, T/C [24] of 64.4%. It also gave a viability, T/C [25] of 66.7%, a viability, T/C [26] of 64.5% and a viability, T/C [27] of 50.2%. The viability, T/C [28] was 41.9%, the viability, T/C [29] was 38.2% and the viability, T/C [30] was 49.3%. It also gave a viability, T/C [31] of 57.7%, a viability, T/C [32] of 53.3% and a viability, T/C [33] of 37.9%. For the same molecule, the viability, T/C [34] was 37.3% and the viability, T/C [35] was 30.7%.
Work on `Nc1ncn(C2CC(O)C(CO)S2)c(=O)n1` (stereo not given) + Cc1ccccc1N=Nc1ccc(NC(=O)c2ccnn2C)c(C)c1 yielded an IC50 [1] greater than 300 nM, an IC50 [2] greater than 300 nM and an IC50 [3] greater than 300 nM. It also gave an IC50 [4] greater than 300 nM, an IC50 [5] greater than 300 nM and a viability, T/C (second compound 0.1 µM, first compound 0.000949 µM) of 93.5%. The viability, T/C (second compound 0.1 µM, first compound 0.003 µM) was 97.4%, the viability, T/C (second compound 0.1 µM, first compound 0.00949 µM) was 101% and the viability, T/C (second compound 0.1 µM, first compound 0.03 µM) was 89.8%. The viability, T/C (second compound 0.1 µM, first compound 0.0949 µM) was 89.9%, the viability, T/C (second compound 0.1 µM, first compound 0.3 µM) was 76.8% and the viability, T/C (second compound 0.316 µM, first compound 0.000949 µM) was 98.2%. It also gave a viability, T/C (second compound 0.316 µM, first compound 0.003 µM) of 101%, a viability, T/C (second compound 0.316 µM, first compound 0.00949 µM) of 93.3% and a viability, T/C (second compound 0.316 µM, first compound 0.03 µM) of 91.6%. It also gave a viability, T/C (second compound 0.316 µM, first compound 0.0949 µM) of 88.5%, a viability, T/C (second compound 0.316 µM, first compound 0.3 µM) of 78.1% and a viability, T/C (second compound 1 µM, first compound 0.000949 µM) of 92%. For the same molecule, the viability, T/C (second compound 1 µM, first compound 0.003 µM) was 93.1%, the viability, T/C (second compound 1 µM, first compound 0.00949 µM) was 91.7% and the viability, T/C (second compound 1 µM, first compound 0.03 µM) was 89.2%. It also gave a viability, T/C (second compound 1 µM, first compound 0.0949 µM) of 79.6%, a viability, T/C (second compound 1 µM, first compound 0.3 µM) of 80.9% and a viability, T/C (second compound 3.16 µM, first compound 0.000949 µM) of 89.8%. For the same molecule, the viability, T/C (second compound 3.16 µM, first compound 0.003 µM) was 94.2%, the viability, T/C (second compound 3.16 µM, first compound 0.00949 µM) was 97.4% and the viability, T/C (second compound 3.16 µM, first compound 0.03 µM) was 79.3%. It also gave a viability, T/C (second compound 3.16 µM, first compound 0.0949 µM) of 77.5%, a viability, T/C (second compound 3.16 µM, first compound 0.3 µM) of 71.3% and a viability, T/C (second compound 10 µM, first compound 0.000949 µM) of 88.2%. The viability, T/C (second compound 10 µM, first compound 0.003 µM) was 89%, the viability, T/C (second compound 10 µM, first compound 0.00949 µM) was 87.8% and the viability, T/C (second compound 10 µM, first compound 0.03 µM) was 89.1%. For the same molecule, the viability, T/C (second compound 10 µM, first compound 0.0949 µM) was 80.8% and the viability, T/C (second compound 10 µM, first compound 0.3 µM) was 75.7%.
With `O=C(c1cc(Cc2n[nH]c(=O)c3ccccc23)ccc1F)N1CCN(C(=O)C2CC2)CC1` + CC(CO)NC(=O)c1cc(-c2ccc(Cl)cc2)nn(-c2cnn(C)c2)c1=O the IC50 [1] was greater than 10000 nM, the IC50 [2] was greater than 10000 nM and the IC50 [3] was greater than 10000 nM. The IC50 [4] was greater than 10000 nM, the IC50 [5] was greater than 10000 nM and the viability, T/C [6] was 105%. It also gave a viability, T/C [7] of 93.3%, a viability, T/C [8] of 102% and a viability, T/C [9] of 84.6%. The viability, T/C [10] was 94.6%, the viability, T/C [11] was 85.3% and the viability, T/C [12] was 97%. For the same molecule, the viability, T/C [13] was 106%, the viability, T/C [14] was 99.9% and the viability, T/C [15] was 81.2%. The viability, T/C [16] was 87.4%, the viability, T/C [17] was 81.7% and the viability, T/C [18] was 99%. For the same molecule, the viability, T/C [19] was 96.6%, the viability, T/C [20] was 94.6% and the viability, T/C [21] was 77.9%. The viability, T/C [22] was 87.2%, the viability, T/C [23] was 79.9% and the viability, T/C [24] was 91.3%. For the same molecule, the viability, T/C [25] was 81.7%, the viability, T/C [26] was 83.5% and the viability, T/C [27] was 77.2%. The viability, T/C [28] was 79%, the viability, T/C [29] was 70.3% and the viability, T/C [30] was 71.7%. It also gave a viability, T/C [31] of 67.6%, a viability, T/C [32] of 69.1% and a viability, T/C [33] of 61.6%. The viability, T/C [34] was 64.1% and the viability, T/C [35] was 62%.
For `Cc1cncc(-c2nc(NCCc3c[nH]c4ccccc34)c3ncn(C(C)C)c3n2)c1`, the viability, T/C (compound 0.1 µM) was 90% [middle of 20 runs], the viability, T/C (compound 0.316 µM) was 95.3% [middle of 20 runs] and the viability, T/C (compound 1 µM) was 87.7% [middle of 20 runs]. The viability, T/C (compound 10 µM) was 4.87% [middle of 19 runs] and the IC50 (compound alone, run of 08/16/2022) was 3.7 µM [middle of 24 runs].
